{
  "source": "patent US8603975B2",
  "about": "“Cyclic peptide compounds” (priority 2007, dated 2013)",
  "note": "*1 amine or outer side, *2 acyl side, *3 side chain or, on linkers, in order; H or OH if unused. Where a SMILES comes first, the peptide text is derived from it. [ ]: non-standard residue; d: D form. The star is where a group is joined. X1 = C[C@H](COC(=O)N(C)c1ccccn1)C[C@@H](C(=O)[*:2])N(C)[*:1]; X2 = COCCN(CCOC)C(=O)OC[C@@H](C)C[C@@H](C(=O)[*:2])N(C)[*:1]; X4 = C[C@H](COC(=O)N(C)c1cccnc1)C[C@@H](C(=O)[*:2])N(C)[*:1]; X3 = C[C@H](COC(=O)N1CCN(C)CC1)C[C@@H](C(=O)[*:2])N(C)[*:1]; X6 = C[C@H](COC(=O)N1CCOCC1)C[C@@H](C(=O)[*:2])N(C)[*:1]; NMe(dihydroBmt) = CCCC[C@@H](C)[C@@H](O)[C@H](NC)C(=O)O; X7 = C[C@H](COC(=O)[*:3])C[C@@H](C(=O)[*:2])N(C)[*:1]; MeBmt = C/C=C/C[C@@H](C)[C@@H](O)[C@H](NC)C(=O)O; NMeL = CN[C@@H](CC(C)C)C(=O)O; X8 = CN(c1cnn(CCN2CCOCC2)c1)*; NMeV = CN[C@H](C(=O)O)C(C)C; Sar = CNCC(=O)O",
  "data": [
    {"biological_target": "HCV replicon", "format": "cell-based, hepatitis C virus", "details": "HCV replicon cells, D-MEM with 5% fetal bovine serum, luciferase activity after two more days of cultivation, 50% enzyme activity level to control (DMSO only)", "description": "It is thought that the replication mechanism of the subgenomic HCV RNA in these cell lines is extremely similar to the replication of full length HCV RNA genome in hepatic cells infected with HCV.\nThe inhibitory activity of the test compounds against the replication of HCV replicon was evaluated by quantifying the activity of luciferase, a reporter gene product encoded in the replicon system reported by Yokota et al., EMBO J 4: 602-608 (2003). The enzyme assay was carried out according to the technical manual of the Steady-Glo(trade mark) luciferase assay system (Promega). The replicon assay was carried out with the modified method reported by Lohmann et al., Science 285: 110 (1999). The details are described in the following.\n6×10^3 HCV replicon cells in D-MEM medium containing 5% fetal bovine serum were seeded in each well of a 96-well microtiter plate (Corning Inc.). After the cells were incubated at 37° C. for 16 hours in 5% CO2, the test compound was added.\nAfter cultivation for two more days, the culture medium was removed and 25 μl of Glo Lysis buffer was added to each well and incubated for 5 minutes. Allowing lysis to occur, 25 μl of Steady-Glo(trade mark) assay reagent was added to each well. After incubation for 5 minutes, the luminescence was measured with a luminometer, Mithras LB940 (BERTHOLD TECHNOLOGIES GmbH & Co.KG) following the manufacturer's instructions.\nThe luciferase activities in replicon cells treated at each concentrations of the compound were employed for the calculation of EC50 value of the each compound, which gave the compound concentration indicating 50% enzyme activity level to the control (no drug group, containing only DMSO).", "units": {"HCV replicon replication inhibitory activity: EC50": "mg/L"}, "values": [
      {"molecule": "C/C=C/C[C@@H](C)[C@@H](O)[C@H]1C(=O)N[C@@H]([C@@H](C)O)C(=O)N(C)[C@H](COC)C(=O)N(C)[C@@H](CC(C)C)C(=O)N[C@@H](CC(C)C)C(=O)N(C)[C@@H](CC(C)C)C(=O)N[C@@H](C)C(=O)N[C@H](C)C(=O)N(C)[C@@H](C[C@H](C)COC(=O)N2CC[C@H](OC)C2)C(=O)N[C@@H](CC(C)C)C(=O)N(C)[C@@H](C(C)C)C(=O)N1C", "note": "[Ex 151]", "HCV replicon replication inhibitory activity: EC50": 0.035},
      {"molecule": "C/C=C/C[C@@H](C)[C@@H](O)[C@H]1C(=O)N[C@@H]([C@@H](C)O)C(=O)N(C)[C@H](C)C(=O)N(C)[C@@H](CC(C)C)C(=O)N[C@@H](CC(C)C)C(=O)N(C)[C@@H](CC(C)C)C(=O)N[C@@H](C)C(=O)N[C@H](C)C(=O)N(C)[C@@H](C[C@H](C)COC(=O)N(C)CC(F)(F)F)C(=O)N[C@@H](CC(C)C)C(=O)N(C)[C@@H](C(C)C)C(=O)N1C", "note": "[Ex 145]", "HCV replicon replication inhibitory activity: EC50": 0.022},
      {"molecule": "C/C=C/C[C@@H](C)[C@@H](O)[C@H]1C(=O)N[C@@H]([C@@H](C)O)C(=O)N(C)[C@H](COC)C(=O)N(C)[C@@H](CC(C)C)C(=O)N[C@@H](CC(C)C)C(=O)N(C)[C@@H](CC(C)C)C(=O)N[C@@H](C)C(=O)N[C@H](C)C(=O)N(C)[C@@H](C[C@H](C)COC(=O)N(C)CCOC)C(=O)N[C@@H](CC(C)C)C(=O)N(C)[C@@H](C(C)C)C(=O)N1C", "note": "[Ex 84]", "HCV replicon replication inhibitory activity: EC50": 0.053},
      {"molecule": "C/C=C/C[C@@H](C)[C@@H](O)[C@H]1C(=O)N[C@@H]([C@@H](C)O)C(=O)N(C)CC(=O)N(C)[C@@H](CC(C)C)C(=O)N[C@@H](CC(C)C)C(=O)N(C)[C@@H](CC(C)C)C(=O)N[C@@H](C)C(=O)N[C@H](C)C(=O)N(C)[C@@H](C[C@H](C)COC(=O)N(C)c2cccnc2)C(=O)N[C@@H](CC(C)C)C(=O)N(C)[C@@H](C(C)C)C(=O)N1C", "note": "[Ex 39] (cyclo([MeBmt]T[Sar][NMeL]L[NMeL]A[dA][X4]L[NMeV]))", "HCV replicon replication inhibitory activity: EC50": 0.12},
      {"molecule": "CCCC[C@@H](C)[C@@H](O)[C@H]1C(=O)N[C@@H]([C@@H](C)O)C(=O)N(C)CC(=O)N(C)[C@@H](CC(C)C)C(=O)N[C@@H](CC(C)C)C(=O)N(C)[C@@H](CC(C)C)C(=O)N[C@@H](C)C(=O)N[C@H](C)C(=O)N(C)[C@@H](C[C@H](C)COC(=O)N(C)c2ccccn2)C(=O)N[C@@H](CC(C)C)C(=O)N(C)[C@@H](C(C)C)C(=O)N1C", "note": "[Ex 249] (cyclo([NMe(dihydroBmt)]T[Sar][NMeL]L[NMeL]A[dA][X1]L[NMeV]))", "HCV replicon replication inhibitory activity: EC50": 0.07},
      {"molecule": "C/C=C/C[C@@H](C)[C@@H](O)[C@H]1C(=O)N[C@@H]([C@@H](C)O)C(=O)N(C)[C@H](C)C(=O)N(C)[C@@H](CC(C)C)C(=O)N[C@@H](CC(C)C)C(=O)N(C)[C@@H](CC(C)C)C(=O)N[C@@H](C)C(=O)N[C@H](C)C(=O)N(C)[C@@H](C[C@H](C)COC(=O)N2CCSCC2)C(=O)N[C@@H](CC(C)C)C(=O)N(C)[C@@H](C(C)C)C(=O)N1C", "note": "[Ex 130]", "HCV replicon replication inhibitory activity: EC50": 0.031},
      {"molecule": "C/C=C/C[C@@H](C)[C@@H](O)[C@H]1C(=O)N[C@@H]([C@@H](C)O)C(=O)N(C)CC(=O)N(C)[C@@H](CC(C)C)C(=O)N[C@@H](CC(C)C)C(=O)N(C)[C@@H](CC(C)C)C(=O)N[C@@H](C)C(=O)N[C@H](C)C(=O)N(C)[C@@H](C[C@H](C)COC(=O)N(C)c2cnn(CCN3CCOCC3)c2)C(=O)N[C@@H](CC(C)C)C(=O)N(C)[C@@H](C(C)C)C(=O)N1C", "note": "[Ex 36] (cyclo([MeBmt]T[Sar][NMeL]L[NMeL]A[dA][X7](X8)L[NMeV]))", "HCV replicon replication inhibitory activity: EC50": 0.09},
      {"molecule": "C/C=C/C[C@@H](C)[C@@H](O)[C@H]1C(=O)N[C@@H]([C@@H](C)O)C(=O)N(C)CC(=O)N(C)[C@@H](CC(C)C)C(=O)N[C@@H](CC(C)C)C(=O)N(C)[C@@H](CC(C)C)C(=O)N[C@@H](C)C(=O)N[C@H](C)C(=O)N(C)[C@@H](C[C@H](C)COC(=O)N2CCOCC2)C(=O)N[C@@H](CC(C)C)C(=O)N(C)[C@@H](C(C)C)C(=O)N1C", "note": "[Ex 1] (cyclo([MeBmt]T[Sar][NMeL]L[NMeL]A[dA][X6]L[NMeV]))", "HCV replicon replication inhibitory activity: EC50": 0.15},
      {"molecule": "C/C=C/C[C@@H](C)[C@@H](O)[C@H]1C(=O)N[C@@H]([C@@H](C)O)C(=O)N(C)[C@H](C)C(=O)N(C)[C@@H](CC(C)C)C(=O)N[C@@H](CC(C)C)C(=O)N(C)[C@@H](CC(C)C)C(=O)N[C@@H](C)C(=O)N[C@H](C)C(=O)N(C)[C@@H](C[C@H](C)COC(=O)N2CCC(C)(OCC)CC2)C(=O)N[C@@H](CC(C)C)C(=O)N(C)[C@@H](C(C)C)C(=O)N1C", "note": "[Ex 124]", "HCV replicon replication inhibitory activity: EC50": 0.056},
      {"molecule": "C/C=C/C[C@@H](C)[C@@H](O)[C@H]1C(=O)N[C@@H]([C@@H](C)O)C(=O)N(C)CC(=O)N(C)[C@@H](CC(C)C)C(=O)N[C@@H](CC(C)C)C(=O)N(C)[C@@H](CC(C)C)C(=O)N[C@@H](C)C(=O)N[C@H](C)C(=O)N(C)[C@@H](C[C@H](C)COC(=O)N(CCOC)CCOC)C(=O)N[C@@H](CC(C)C)C(=O)N(C)[C@@H](C(C)C)C(=O)N1C", "note": "[Ex 10] (cyclo([MeBmt]T[Sar][NMeL]L[NMeL]A[dA][X2]L[NMeV]))", "HCV replicon replication inhibitory activity: EC50": 0.18},
      {"molecule": "C/C=C/C[C@@H](C)[C@@H](O)[C@H]1C(=O)N[C@@H]([C@@H](C)O)C(=O)N(C)CC(=O)N(C)[C@@H](CC(C)C)C(=O)N[C@@H](CC(C)C)C(=O)N(C)[C@@H](CC(C)C)C(=O)N[C@@H](C)C(=O)N[C@H](C)C(=O)N(C)[C@@H](C[C@H](C)COC(=O)N2CCN(C)CC2)C(=O)N[C@@H](CC(C)C)C(=O)N(C)[C@@H](C(C)C)C(=O)N1C", "note": "[Ex 8] (cyclo([MeBmt]T[Sar][NMeL]L[NMeL]A[dA][X3]L[NMeV]))", "HCV replicon replication inhibitory activity: EC50": 0.16}
    ]}
  ]
}
